Laboratory results from patent US11028077B2, “Crystalline pharmaceutical and methods of preparation and use thereof” (NOVARTIS PHARMACEUTICALS CORPORATION, priority 2008, dated 2021).

Test system: tester strains
Assay: In vitro Ames bacterial reverse mutation assay
Type: cell-based
Details: presence or absence of microsomal (S9) enzymes
Excerpt: Therefore, the compound of Formula I was judged to be not mutagenic.

With `CS(=O)(=O)c1cccc(C[C@H](NC(=O)c2c(Cl)cc3c(c2Cl)CCN(C(=O)c2ccc4ccoc4c2)C3)C(=O)O)c1` [compound of Formula I] the “mutagenicity (revertants per plate)” value was “not mutagenic”.
